Test results: patent US20260250290A1 (BRISTOL-MYERS SQUIBB COMPANY, priority 2023, published 2026)

biological target: T1, SGK1 (Homo sapiens, UniProt O00141); assay: SGK1 inhibition Assay B (Echo mass spectrometry of phosphorylated peptide product); format: biochemical; conditions: 60 min at room temperature
T1 sequence (O00141 1-431): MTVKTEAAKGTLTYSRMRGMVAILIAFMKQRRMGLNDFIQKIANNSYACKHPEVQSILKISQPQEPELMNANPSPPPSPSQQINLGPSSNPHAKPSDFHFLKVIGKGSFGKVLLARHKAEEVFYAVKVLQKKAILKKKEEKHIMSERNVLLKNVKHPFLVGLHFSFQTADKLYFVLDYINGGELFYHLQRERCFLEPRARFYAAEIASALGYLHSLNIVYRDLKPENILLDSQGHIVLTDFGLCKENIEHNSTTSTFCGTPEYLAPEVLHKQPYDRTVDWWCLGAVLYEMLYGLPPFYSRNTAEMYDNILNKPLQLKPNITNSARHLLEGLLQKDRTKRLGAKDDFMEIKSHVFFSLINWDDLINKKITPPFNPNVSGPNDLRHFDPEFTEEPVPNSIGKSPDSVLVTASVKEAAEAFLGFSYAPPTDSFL

SMILES | IC50 [nM]
CC(C)N1CC2(CN(c3cccc(C(=O)N[C@@H]4CCCN(c5cc(-c6cc(F)c(-n7cnnn7)c(F)c6)n6ncnc(N)c56)C4)n3)C2)C1 [Example 826, (R)-N-(1-(4-amino-7-(3,5-difluoro-4-(1H-tetrazol-1-yl)phenyl)pyrrolo[2,1-f][1,2,4]triazin-5-yl)piperidin-3-yl)-6-(6-isopropyl-2,6-diazaspiro[3.3]heptan-2-yl)picolinamide] | 3
COc1cc(-c2cc(N3CCC[C@@H](NC(=O)c4cccc(N5CC6(C5)CN(C(C)C)C6)n4)C3)c3c(N)ncnn23)ccc1-n1cnnn1 [Example 827, (R)-N-(1-(4-amino-7-(3-methoxy-4-(1H-tetrazol-1-yl)phenyl)pyrrolo[2,1-f][1,2,4]triazin-5-y1)piperidin-3-yl)-6-(6-isopropyl-2,6-diazaspiro[3.3]heptan-2-yl)picolinamide] | 7
CC(C)N1CC2(CN(c3cccc(C(=O)N[C@@H]4CCCN(c5cc(-c6cnc(-n7cnnn7)nc6)n6ncnc(N)c56)C4)n3)C2)C1 [Example 828, (R)-N-(1-(7-(2-(1H-tetrazol-1-yl)pyrimidin-5-yl)-4-aminopyrrolo[2,1-f][1,2,4]triazin-5-yl)piperidin-3-yl)-6-(6-isopropyl-2,6-diazaspiro[3.3]heptan-2-yl)picolinamide] | 25
Cc1nnnn1-c1ccc(-c2cc(N3CCC[C@@H](NC(=O)c4cccc(N5CC6(C5)CN(C(C)C)C6)n4)C3)c3c(N)ncnn23)cc1 [Example 829, (R)-N-(1-(4-amino-7-(4-(5-methyl-1H-tetrazol-1-yl)phenyl)pyrrolo[2,1-f][1,2,4]triazin-5-yl)piperidin-3-yl)-6-(6-isopropyl-2,6-diazaspiro[3.3]heptan-2-yl)picolinamide] | 2
CC(C)N1CC2(CN(c3cccc(C(=O)N[C@@H]4CCCN(c5cc(-c6cnc(-n7cnnn7)c(F)c6)n6ncnc(N)c56)C4)n3)C2)C1 [Example 830, (R)-N-(1-(4-amino-7-(5-fluoro-6-(1H-tetrazol-1-yl)pyridin-3-yl)pyrrolo[2,1-f][1,2,4]triazin-5-yl)piperidin-3-yl)-6-(6-isopropyl-2,6-diazaspiro[3.3]heptan-2-yl)picolinamide] | 4
CC(=O)c1ccc(-c2cc(N3CCC[C@@H](NC(=O)c4cccc(N5CC6(C5)CN(C(C)C)C6)n4)C3)c3c(N)ncnn23)cn1 [Example 831, (R)-N-(1-(7-(6-acetylpyridin-3-yl)-4-aminopyrrolo[2,1-f][1,2,4]triazin-5-yl)piperidin-3-yl)-6-(6-isopropyl-2,6-diazaspiro[3.3]heptan-2-yl)picolinamide] | 22
CC(C)N1CC2(CN(c3cccc(C(=O)N[C@@H]4CCCN(c5cc(-c6ccc(S(C)(=O)=O)cc6)n6ncnc(N)c56)C4)n3)C2)C1 [Example 832, (R)-N-(1-(4-amino-7-(4-(methylsulfonyl)phenyl)pyrrolo[2,1-f][1,2,4]triazin-5-yl)piperidin-3-yl)-6-(6-isopropyl-2,6-diazaspiro[3.3]heptan-2-yl)picolinamide] | 12
CC(C)N1CC2(CN(c3cccc(C(=O)N[C@@H]4CCCN(c5cc(-c6ccc(S(C)(=O)=O)c(F)c6)n6ncnc(N)c56)C4)n3)C2)C1 [Example 833, (R)-N-(1-(4-amino-7-(3-fluoro-4-(methylsulfonyl)phenyl)pyrrolo[2,1-f][1,2,4]triazin-5-yl)piperidin-3-yl)-6-(6-isopropyl-2,6-diazaspiro[3.3]heptan-2-yl)picolinamide] | 9
CC(C)N1CC2(CN(c3cccc(C(=O)N[C@@H]4CCCN(c5cc(-c6ccc(S(C)(=O)=O)nc6)n6ncnc(N)c56)C4)n3)C2)C1 [Example 834, (R)-N-(1-(4-amino-7-(6-(methylsulfonyl)pyridin-3-yl)pyrrolo[2,1-f][1,2,4]triazin-5-yl)piperidin-3-yl)-6-(6-isopropyl-2,6-diazaspiro[3.3]heptan-2-yl)picolinamide] | 20
CNC(=O)c1ccc(-c2cc(N3CCC[C@@H](NC(=O)c4sc(Cl)cc4OCCN(C)C)C3)c3c(N)ncnn23)cn1 [Example 835, (R)-5-(4-amino-5-(3-(5-chloro-3-(2-(dimethylamino)ethoxy)thiophene-2-carboxamido)piperidin-1-yl)pyrrolo[2,1-f][1,2,4]triazin-7-yl)-N-methylpicolinamide] | 13
CN1C2CCC1CC(Oc1cc(Cl)sc1C(=O)NC1CCCN(c3cc(-c4cnn(C(F)F)c4)n4ncnc(N)c34)C1)C2 [Example 836, N-((R)-1-(4-amino-7-(1-(difluoromethyl)-1H-pyrazol-4-yl)pyrrolo[2,1-f][1,2,4]triazin-5-yl)piperidin-3-yl)-5-chloro-3-(((1R,3s,5S)-8-methyl-8-azabicyclo[3.2.1]octan-3-yl)oxy)thiophene-2-carboxamide] | 2
CN1[C@@H]2CC[C@H]1C[C@H](Oc1cc(Cl)sc1C(=O)N[C@@H]1CCCN(c3cc(-c4ccc(-n5cccn5)cc4)n4ncnc(N)c34)C1)C2 [Example 837, N-((R)-1-(7-(4-(1H-pyrazol-1-yl)phenyl)-4-aminopyrrolo[2,1-f][1,2,4]triazin-5-yl)piperidin-3-yl)-5-chloro-3-(((1R,3s,5S)-8-methyl-8-azabicyclo[3.2.1]octan-3-yl)oxy)thiophene-2-carboxamide] | 4
CC(=O)c1ccc(-c2cc(N3CCC[C@@H](NC(=O)c4sc(Cl)cc4O[C@@H]4C[C@H]5CC[C@@H](C4)N5C)C3)c3c(N)ncnn23)cn1 [Example 838, N-((R)-1-(7-(6-acetylpyridin-3-yl)-4-aminopyrrolo[2,1-f][1,2,4]triazin-5-yl)piperidin-3-yl)-5-chloro-3-(((1R,3s,5S)-8-methyl-8-azabicyclo[3.2.1]octan-3-yl)oxy)thiophene-2-carboxamide] | 2
CC(=O)c1ccc(-c2cc(N3CCC[C@@H](NC(=O)c4sc(Cl)cc4O[C@@H]4C[C@H]5CC[C@@H](C4)N5C)C3)c3c(N)ncnn23)cc1F [Example 839, N-((R)-1-(7-(4-acetyl-3-fluorophenyl)-4-aminopyrrolo[2,1-f][1,2,4]triazin-5-yl)piperidin-3-yl)-5-chloro-3-(((1R,3s,5S)-8-methyl-8-azabicyclo[3.2.1]octan-3-yl)oxy)thiophene-2-carboxamide] | 2
CN1[C@@H]2CC[C@H]1C[C@H](Oc1cc(Cl)sc1C(=O)N[C@@H]1CCCN(c3cc(-c4ccc(C(F)(F)F)c(F)c4)n4ncnc(N)c34)C1)C2 [Example 841, N-((R)-1-(4-amino-7-(3-fluoro-4-(trifluoromethyl)phenyl)pyrrolo[2,1-f][1,2,4]triazin-5-yl)piperidin-3-yl)-5-chloro-3-(((1R,3s,5S)-8-methyl-8-azabicyclo[3.2.1]octan-3-yl)oxy)thiophene-2-carboxamide] | 17
CN1[C@@H]2CC[C@H]1C[C@H](Oc1cc(Cl)sc1C(=O)N[C@@H]1CCCN(c3cc(-c4cnc(-n5cnnn5)c(F)c4)n4ncnc(N)c34)C1)C2 [Example 843, N-((R)-1-(4-amino-7-(5-fluoro-6-(1H-tetrazol-1-yl)pyridin-3-yl)pyrrolo[2,1-f][1,2,4]triazin-5-yl)piperidin-3-yl)-5-chloro-3-(((1R,3s,5S)-8-methyl-8-azabicyclo[3.2.1]octan-3-yl)oxy)thiophene-2-carboxamide] | 2
